Like-named read-outs stand apart in the source and are kept apart here.
Assays:
[1] = MTT cytotoxicity assay; type: cell-based; details: African green monkey (Chlorocebus sp.), Vero cells (kidney), four days incubation, Table 4
Procedure: (§1) Aedes albopictus clone C6/36 cells were maintained to propagate the dengue virus type 2 (DENV 2); African green monkey ( Chlorocebus sp.) kidney Vero cells were grown for antiviral analysis. Both cells were grown in Eagle’s Minimum Essential Medium (EMEM) (Biowest LLC, Riverside, MO, USA) with 10% Fetal Bovine Serum (FBS) (Biowest LLC).
The 96-well plates were seeded with 100 µL of Vero cell suspension at a density of 1 × 10^5 cells / mL and the next day were treated with different dilutions of the synthesized compounds. Control wells were treated with only the vehicle media used to prepare the antiviral dilutions. Plates were incubated for four days at 37 °C. Following the addition of 15 μL of MTT (Sigma-Aldrich Corp., St. Louis, MO, USA) solution into each well, the plates were incubated at 37 °C for another 4 h. Subsequently, the medium was carefully aspirated from all the wells and 100 μL of DMSO was added to each well [26]. The optical density (OD) of the wells was measured at 570 nm using a 96-well plate reader (Tecan Group AG, Männedorf, Switzerland). The percentage cell viability was calculated against the untreated controls. Dose-response curves were plotted. Half maximal cytotoxic concentration (CC50) was calculated using Graph Pad Prism for Windows, Version 5 (GraphPad Software Inc., San Diego, CA, USA).

[2] = test system: DENV 2; test: CPE reduction-based antiviral assay (primary evaluation); type: cell-based, dengue virus type 2 (DENV 2); design: key: ++++ for total reduction; +++ for 75% reduction; ++ for 50% reduction; + for less than 50% reduction; -- for no reduction; details: DENV 2-infected Vero cells, treated after 1 h viral adsorption, graded per Kudi and Myint
Procedure: as §1
Ribavirin tablets (Copegus, 200 mg, Genentech, Inc., South San Francisco, CA, USA) were purchased and stock solutions were stored. Dilutions were prepared in 2% FBS (maintenance media) at the time of assay. TCID50 assay was employed to measure the titer of the virus stocks for antiviral evaluation following standard methods. The viral CPE was observed on the third and fourth days and observations were recorded based on the Reed–Muench method.
Plates were seeded with Vero cell suspension (100 µL) at a density of 1 × 10^5 cells/mL one day before the wells were treated with TCID50 (100 µL) dilution of the DENV 2 stock and untreated control wells were maintained in parallel. After 1 h of viral adsorption, unbound viruses were washed and different antiviral dilutions were added. These plates were further incubated for 4 more days and were observed daily. Observations were recorded on the third and fourth days. The wells were marked for CPE reduction according to the grading system defined by Kudi and Myint.

[3] = test system: DENV 2; test: Foci forming unit reduction assay (FFURA, secondary evaluation); type: cell-based, dengue virus type 2 (DENV 2); details: for reduction in the number of foci: three different dilutions; for IC50: Dengue virus, 96 h, read-out: IC50 ± SE; for Selectivity index CC50/IC50: CC50 (Vero, MTT) / IC50 (FFURA, DENV 2)
Procedure: as §1
Antiviral activity was quantitatively validated by measuring the reduction in the number of DENV infectious foci after 4 days of treatment. DENV 2 infected Vero cells were treated with different antiviral dilutions supplemented with 2% FBS and 1.5% carboxymethyl cellulose (CMC). Virus foci were stained and visualized according to the published protocol. The number of foci was counted through stereomicroscope and virus titer was stated as foci forming unit (FFU). To calculate the antiviral activity of antidengue compounds, the percentage reduction in foci (%RF) was calculated between the treated, and untreated wells maintained in parallel. The assay was repeated three times, dose-response curves were plotted and half […] inhibitory concentration (IC50) and selectivity index (SI) were calculated.

[4] = DENV 2 infected Vero cells, foci reduction after 4 days of treatment

C=C(C)[C@H]1CC=C(C)/C(=N/NC(=S)SC)C1 [SMSCV, Methyl (S,E)-2-(2-methyl-5-(prop-1-en-2-yl)cyclohex-2-en-1-ylidene)hydrazine-1-carbodithioate]
CC50 at 4 days [1]: 24.5 ± 9.2 µM | CPE reduction [2]: --

C=C(C)[C@@H]1CC=C(C)/C(=N/NC(=S)SCc2ccccc2)C1 [SBRCV, Benzyl (R,E)-2-(2-methyl-5-(prop-1-en-2-yl)cyclohex-2-en-1-ylidene)hydrazine-1-carbodithioate]
CC50 at 4 days [1]: 28.5 ± 3.9 µM | CPE reduction [2]: + (+ for less than 50% reduction)

C=C(C)[C@@H]1CC=C(C)/C(=N/NC(=S)SC)C1 [SMRCV, Methyl (R,E)-2-(2-methyl-5-(prop-1-en-2-yl)cyclohex-2-en-1-ylidene)hydrazine-1-carbodithioate]
CC50 at 4 days [1]: 31.1 ± 8 µM | CPE reduction [2]: --

C=C(C)[C@H]1CC=C(C)/C(=N/NC(=S)SCc2ccccc2)C1 [SBSCV, Benzyl (S,E)-2-(2-methyl-5-(prop-1-en-2-yl)cyclohex-2-en-1-ylidene)hydrazine-1-carbodithioate]
CC50 at 4 days [1]: 29.2 ± 6.4 µM | CPE reduction [2]: + (+ for less than 50% reduction)

CSC(=S)N/N=C1\C(=O)[C@@]2(C)CC[C@@H]1C2(C)C [SMSCQ, Methyl (Z)-2-((1R,4S)-4,7,7-trimethyl-3-oxobicyclo[2.2.1]heptan-2-ylidene)hydrazine-1-carbodithioate]
CC50 at 4 days [1]: 69.2 ± 5.9 µM | reduction in the number of foci ([3]; DENV 2 infected Vero cells): reduction in the number of foci appearance | IC50 ([3]; Vero): 6.8 ± 2.8 µM | CPE reduction [2]: + (+ for less than 50% reduction)

CC1(C)[C@H]2CC[C@]1(C)/C(=N/NC(=S)SCc1ccccc1)C2 [SBSCM, Benzyl (E)-2-((1S,4S)-1,7,7-trimethylbicyclo[2.2.1]heptan-2-ylidene)hydrazine-1-carbodithioate]
CC50 at 4 days [1]: 87.2 ± 5.9 µM | Selectivity index CC50/IC50 [3]: 12.8 | reduction in the number of foci ([3]; DENV 2 infected Vero cells): reduction in the number of foci appearance | IC50 [3, 4]: 6.8 ± 2.3 µM | CPE reduction [2]: ++ (++ for 50% reduction)

CC1(C)[C@@H]2CC[C@@]1(C)/C(=N/NC(=S)SCc1ccccc1)C2 [SBRCM, Benzyl (E)-2-((1R,4R)-1,7,7-trimethylbicyclo[2.2.1]heptan-2-ylidene)hydrazine-1-carbodithioate]
CC50 at 4 days [1]: 81.7 ± 4.4 µM | Selectivity index CC50/IC50 [3]: 10.4 | reduction in the number of foci ([3]; DENV 2 infected Vero cells): reduction in the number of foci appearance | IC50 [3, 4]: 7.8 ± 4.5 µM | CPE reduction [2]: ++ (++ for 50% reduction)

CSC(=S)N/N=C1\C[C@H]2CC[C@]1(C)C2(C)C [SMRCM, Methyl (E)-2-((1R,4R)-1,7,7-trimethylbicyclo[2.2.1]heptan-2-ylidene)hydrazine-1-carbodithioate]
CC50 at 4 days [1]: 88.4 ± 3.8 µM | Selectivity index CC50/IC50 [3]: 12.8 | reduction in the number of foci ([3]; DENV 2 infected Vero cells): reduction in the number of foci appearance | IC50 [3, 4]: 6.9 ± 1.2 µM | CPE reduction [2]: ++ (++ for 50% reduction)

CSC(=S)N/N=C1\C[C@@H]2CC[C@@]1(C)C2(C)C [SMSCM, Methyl (E)-2-((1S,4S)-1,7,7-trimethylbicyclo[2.2.1]heptan-2-ylidene)hydrazine-1-carbodithioate]
CC50 at 4 days [1]: 88.7 ± 2 µM | Selectivity index CC50/IC50 [3]: 14.3 | reduction in the number of foci ([3]; DENV 2 infected Vero cells): reduction in the number of foci appearance | IC50 [3, 4]: 6.2 ± 3.2 µM | CPE reduction [2]: ++ (++ for 50% reduction)

— publication PMC7751940, “Synthesis, characterization and evaluation of antidengue activity of enantiomeric Schiff bases derived from S-substituted dithiocarbazate” (Turkish Journal of Chemistry, 2020)
